We go through five compounds from article PMC7305236, “The atypical chemokine receptor ACKR3/CXCR7 is a broad-spectrum scavenger for opioid peptides” (Nature Communications, 2020).

Like-named read-outs stand apart in the source and are kept apart here.

What all share (assay): Figure S2a opioid peptide screen on chemokine receptors
What all share (type): cell-based
Holding throughout (parameters): dose or concentration left out as unconfirmed

In one assay the target is T1, CCR1 (Homo sapiens, UniProt P32246).
T1 construct: expressed in transfected cells
T1 sequence (P32246 1-355): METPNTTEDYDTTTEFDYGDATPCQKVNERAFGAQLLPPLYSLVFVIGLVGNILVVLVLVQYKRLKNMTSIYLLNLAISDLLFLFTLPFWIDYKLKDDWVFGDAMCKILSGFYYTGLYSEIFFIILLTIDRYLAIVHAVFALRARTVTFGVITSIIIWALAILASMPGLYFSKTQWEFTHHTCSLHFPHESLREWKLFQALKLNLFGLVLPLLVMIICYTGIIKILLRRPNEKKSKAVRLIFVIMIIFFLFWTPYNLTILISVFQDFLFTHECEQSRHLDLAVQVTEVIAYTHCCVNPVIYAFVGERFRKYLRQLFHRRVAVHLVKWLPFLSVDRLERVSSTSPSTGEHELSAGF

For another assay, the target named is T2, CCR2 (Homo sapiens, UniProt P41597).
T2 construct: expressed in transfected cells
T2 sequence (P41597 1-360 isoform P41597-2): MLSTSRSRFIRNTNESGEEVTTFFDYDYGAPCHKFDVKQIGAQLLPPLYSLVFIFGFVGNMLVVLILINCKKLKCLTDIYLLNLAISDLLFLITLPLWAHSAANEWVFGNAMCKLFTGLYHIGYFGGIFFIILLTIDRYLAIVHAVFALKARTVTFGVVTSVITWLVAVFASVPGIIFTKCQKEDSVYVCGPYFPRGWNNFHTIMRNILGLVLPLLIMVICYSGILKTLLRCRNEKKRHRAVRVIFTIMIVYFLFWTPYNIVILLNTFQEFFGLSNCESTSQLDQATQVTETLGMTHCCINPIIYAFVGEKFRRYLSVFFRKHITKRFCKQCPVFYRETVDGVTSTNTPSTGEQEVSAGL

The target in a further assay is T3, CCR6 (Homo sapiens, UniProt P51684).
T3 construct: expressed in transfected cells
T3 sequence (P51684 1-374): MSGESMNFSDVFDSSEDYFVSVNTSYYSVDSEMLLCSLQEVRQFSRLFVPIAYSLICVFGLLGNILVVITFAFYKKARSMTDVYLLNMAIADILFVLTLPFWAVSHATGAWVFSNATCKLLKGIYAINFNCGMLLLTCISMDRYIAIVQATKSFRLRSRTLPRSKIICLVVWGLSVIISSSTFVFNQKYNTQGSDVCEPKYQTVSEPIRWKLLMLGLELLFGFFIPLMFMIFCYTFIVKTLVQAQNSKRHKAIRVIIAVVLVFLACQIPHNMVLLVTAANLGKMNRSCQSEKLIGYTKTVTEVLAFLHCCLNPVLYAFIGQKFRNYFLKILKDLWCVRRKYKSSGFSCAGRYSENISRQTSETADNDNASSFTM

The target in the next assay is T4, CCR9 (Homo sapiens, UniProt P51686).
T4 construct: expressed in transfected cells
T4 sequence (P51686 1-369): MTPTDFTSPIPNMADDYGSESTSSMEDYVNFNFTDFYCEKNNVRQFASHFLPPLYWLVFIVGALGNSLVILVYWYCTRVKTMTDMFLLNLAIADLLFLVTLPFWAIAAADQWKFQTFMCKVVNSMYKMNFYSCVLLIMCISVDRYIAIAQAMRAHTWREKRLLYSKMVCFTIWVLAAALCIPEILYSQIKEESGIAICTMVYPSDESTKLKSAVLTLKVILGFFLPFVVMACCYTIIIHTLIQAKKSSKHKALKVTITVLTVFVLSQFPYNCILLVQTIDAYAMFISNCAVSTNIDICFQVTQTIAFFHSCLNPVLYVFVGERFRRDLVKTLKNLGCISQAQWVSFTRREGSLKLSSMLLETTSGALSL

The next assay addresses T5, CXCR2 (Homo sapiens, UniProt P25025).
T5 construct: expressed in transfected cells
T5 sequence (P25025 1-360): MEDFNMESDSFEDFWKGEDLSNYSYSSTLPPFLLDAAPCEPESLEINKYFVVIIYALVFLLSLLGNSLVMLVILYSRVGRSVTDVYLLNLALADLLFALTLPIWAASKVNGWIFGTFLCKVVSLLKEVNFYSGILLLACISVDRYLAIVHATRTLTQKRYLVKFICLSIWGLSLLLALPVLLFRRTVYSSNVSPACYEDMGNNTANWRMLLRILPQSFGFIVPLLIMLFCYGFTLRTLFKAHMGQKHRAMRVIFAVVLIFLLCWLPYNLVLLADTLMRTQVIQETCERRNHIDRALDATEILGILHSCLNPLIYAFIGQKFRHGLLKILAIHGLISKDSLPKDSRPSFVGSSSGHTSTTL

The target of another assay is T6, CXCR3B (Homo sapiens, UniProt P49682).
T6 construct: expressed in transfected cells; host or cells: U87 cells
T6 sequence (P49682 1-415 isoform P49682-2): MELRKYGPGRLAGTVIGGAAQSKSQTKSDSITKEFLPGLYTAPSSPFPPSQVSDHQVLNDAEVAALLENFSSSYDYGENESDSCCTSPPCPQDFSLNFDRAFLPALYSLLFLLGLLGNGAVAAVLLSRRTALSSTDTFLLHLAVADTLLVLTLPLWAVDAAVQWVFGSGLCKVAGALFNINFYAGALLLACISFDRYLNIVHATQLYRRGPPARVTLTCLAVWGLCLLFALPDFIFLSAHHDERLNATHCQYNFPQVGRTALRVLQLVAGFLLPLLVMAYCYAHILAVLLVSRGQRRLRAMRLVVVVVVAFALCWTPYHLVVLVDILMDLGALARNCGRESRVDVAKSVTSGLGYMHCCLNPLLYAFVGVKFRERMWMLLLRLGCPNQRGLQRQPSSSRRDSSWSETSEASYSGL

Setting [1] is: replicate 1, read-out: CCR1 activity, ctrl+ = 100.
Setting [2] is: replicate 2, read-out: CCR1 activity, ctrl+ = 100.
Setting [3] is: replicate 3, read-out: CCR1 activity, ctrl+ = 100.
The mark [4] stands for this setting: replicate 1, read-out: CCR2 activity, ctrl+ = 100.
[5] abbreviates: replicate 2, read-out: CCR2 activity, ctrl+ = 100.
[6] abbreviates: replicate 3, read-out: CCR2 activity, ctrl+ = 100.
[7] abbreviates: replicate 1, read-out: CCR6 activity, ctrl+ = 100.
Setting [8] is: replicate 2, read-out: CCR6 activity, ctrl+ = 100.
Where [9] appears, read: replicate 3, read-out: CCR6 activity, ctrl+ = 100.
Setting [10] is: replicate 1, read-out: CCR9 activity, ctrl+ = 100.
The mark [11] stands for this setting: replicate 2, read-out: CCR9 activity, ctrl+ = 100.
Where [12] appears, read: replicate 3, read-out: CCR9 activity, ctrl+ = 100.
The mark [13] stands for this setting: replicate 1, read-out: CXCR2 activity, ctrl+ = 100.
The mark [14] stands for this setting: replicate 2, read-out: CXCR2 activity, ctrl+ = 100.
Where [15] appears, read: replicate 3, read-out: CXCR2 activity, ctrl+ = 100.
The mark [16] stands for this setting: replicate 1, read-out: CXCR3B activity, ctrl+ = 100.
[17] abbreviates: replicate 2, read-out: CXCR3B activity, ctrl+ = 100.
The mark [18] stands for this setting: replicate 3, read-out: CXCR3B activity, ctrl+ = 100.

`C[C@H](NC(=O)CNC(=O)[C@@H](NC(=O)[C@H](Cc1ccccc1)NC(=O)CNC(=O)CNC(=O)[C@@H](N)Cc1ccccc1)[C@@H](C)O)C(=O)N[C@@H](CCCNC(=N)N)C(=O)N[C@@H](CCCCN)C(=O)N[C@@H](CO)C(=O)N[C@@H](C)C(=O)N[C@@H](CCCNC(=N)N)C(=O)N[C@@H](CCCCN)C(N)=O` [Nociceptin 1-13]: the activation at CCR1 (setting [1]) was -0.621%; at CCR1 (setting [2]), 1.74%; at CCR1 (setting [3]) it was -35.9%; at CCR2 (setting [4]) it was 0.793%; at CCR2 (setting [5]), -0.93%; at CCR2 (setting [6]), 1.52%. The activation is 0.552% on CCR6 (setting [7]); -0.975% on CCR6 (setting [8]); -0.351% on CCR6 (setting [9]); -3.6% on CCR9 (setting [10]); -1.89% at CCR9 (setting [11]); 2.5% on CCR9 (setting [12]). Besides, the activation is -8.55% on CXCR2 (setting [13]); -9.95% on CXCR2 (setting [14]); -4.53% at CXCR2 (setting [15]); -2.86% at CXCR3B (setting [16]); 1.14% on CXCR3B (setting [17]); 7.41% on CXCR3B (setting [18]).

Turning to `CSCC[C@H](NC(=O)[C@H](Cc1ccccc1)NC(=O)CNC(=O)CNC(=O)[C@@H](N)Cc1ccc(O)cc1)C(=O)N[C@@H](CCCNC(=N)N)C(=O)N[C@@H](CCCNC(=N)N)C(=O)N[C@H](C(N)=O)C(C)C` [Adrenorphin], the activation was -15% on CCR1 (setting [1]); 8.25% on CCR1 (setting [2]); -9.95% at CCR1 (setting [3]); -0.901% at CCR2 (setting [4]); -1.07% on CCR2 (setting [5]); -1.1% at CCR2 (setting [6]). Moreover, the activation at CCR6 (setting [7]) is -3.87%; on CCR6 (setting [8]) it was 1.08%; on CCR6 (setting [9]), -1.64%; at CCR9 (setting [10]), 0.345%; on CCR9 (setting [11]) it was -0.997%; on CCR9 (setting [12]), 2.74%. In addition, the activation is 3.42% on CXCR2 (setting [13]); -6.62% at CXCR2 (setting [14]); -0.394% on CXCR2 (setting [15]); 3.73% at CXCR3B (setting [16]); 1.55% on CXCR3B (setting [17]); 0.555% on CXCR3B (setting [18]).

As to `CC[C@H](C)[C@H](NC(=O)[C@H](CCCNC(=N)N)NC(=O)[C@H](CCCNC(=N)N)NC(=O)[C@H](CC(C)C)NC(=O)[C@H](Cc1ccccc1)NC(=O)CNC(=O)CNC(=O)[C@@H](N)Cc1ccc(O)cc1)C(=O)N[C@@H](CCCNC(=N)N)C(=O)N1CCC[C@H]1C(=O)N[C@@H](CCCCN)C(=O)N[C@@H](CC(C)C)C(=O)N[C@@H](CCCCN)C(=O)O` [Dynorphin 1-13], the activation is -29% on CCR1 (setting [1]); -26.2% at CCR1 (setting [2]); -0.833% at CCR2 (setting [4]); -2.52% on CCR2 (setting [5]); -0.31% at CCR6 (setting [7]); -0.732% at CCR6 (setting [8]). In addition, the activation was -2.31% at CCR9 (setting [10]); -1.58% at CCR9 (setting [11]); -2.31% at CXCR2 (setting [13]); -22.4% at CXCR2 (setting [14]); 3.92% at CXCR3B (setting [16]); -5.01% on CXCR3B (setting [17]).

On to `CC(C)C[C@H](NC(=O)[C@H](Cc1ccccc1)NC(=O)CNC(=O)CNC(=O)[C@@H](N)Cc1ccc(O)cc1)C(=O)N[C@@H](CCCN=C(N)N)C(=O)N[C@@H](CCCN=C(N)N)C(=O)N[C@@H](CCC(N)=O)C(=O)N[C@@H](Cc1ccccc1)C(=O)N[C@@H](CCCCN)C(=O)N[C@H](C(=O)N[C@H](C(=O)N[C@H](C(=O)O)[C@@H](C)O)C(C)C)C(C)C` [Dynorphin B], for which the activation at CCR1 (setting [1]) is -23.7%; on CCR1 (setting [2]), -13.7%; on CCR1 (setting [3]) it was 27.5%; at CCR2 (setting [4]), 0.688%; at CCR2 (setting [5]), -2.18%; on CCR2 (setting [6]), 1.67%. The activation is -0.194% at CCR6 (setting [7]); -0.375% at CCR6 (setting [8]); -3.12% at CCR6 (setting [9]); -1.23% on CCR9 (setting [10]); -1.3% on CCR9 (setting [11]); 15.7% at CCR9 (setting [12]). Moreover, the activation at CXCR2 (setting [13]) was 0.415%; at CXCR2 (setting [14]), -10%; at CXCR2 (setting [15]) it was 5.58%; on CXCR3B (setting [16]) it was -3.84%; at CXCR3B (setting [17]) it was -0.0101%; on CXCR3B (setting [18]) it was 0.918%.

With `NC(=O)[C@H](Cc1ccccc1)NC(=O)[C@H](Cc1c[nH]c2ccccc12)NC(=O)[C@@H]1CCCN1C(=O)[C@@H](N)Cc1ccc(O)cc1` [Endomorphin-1], the activation on CCR1 (setting [1]) was 3.57%; at CCR1 (setting [2]), -19.2%; at CCR2 (setting [4]), 0.794%; on CCR2 (setting [5]) it was -3.22%; on CCR6 (setting [7]), 0.653%; on CCR6 (setting [8]), 2.69%. Besides, the activation at CCR9 (setting [10]) was -1.12%; at CCR9 (setting [11]), 1.74%; at CXCR2 (setting [13]), 0.676%; at CXCR2 (setting [14]), -3.23%; at CXCR3B (setting [16]), -0.0115%; on CXCR3B (setting [17]) it was 13%.
